Measured values: the NIST ThermoML archive (doi:10.1016/j.jct.2017.06.002)

Test: xn = mol fraction of the nth substance listed
Conditions: 100 kPa, Liquid; for viscosity: Concentric cylinders viscometry; for mass density: Vibrating tube method

COCOCOCOC [2,4,6,8-tetraoxanonane] + COCOCOC
Conditions	mass density [kg/m3]	viscosity [mPa·s]
288.15 K, x2 = 0	1037.5	1.259
288.15 K, x2 = 0.06	1034.7	1.278
288.15 K, x2 = 0.12	1031.3	1.281
288.15 K, x2 = 0.18	1029.5	1.273
288.15 K, x2 = 0.24	1027.1	1.261
288.15 K, x2 = 0.35	1024.2	1.228
288.15 K, x2 = 0.45	1021.1	1.185
288.15 K, x2 = 0.55	1018.1	1.142
288.15 K, x2 = 0.65	1014.3	1.096
288.15 K, x2 = 0.74	1010.1	1.051
288.15 K, x2 = 0.83	1006.2	1.001
288.15 K, x2 = 0.92	1002.3	0.9612
293.15 K, x2 = 0	1030.2	1.166
293.15 K, x2 = 0.06	1028.4	1.174
293.15 K, x2 = 0.12	1025.9	1.177
293.15 K, x2 = 0.18	1024.5	1.17
293.15 K, x2 = 0.24	1022.7	1.159
293.15 K, x2 = 0.35	1019.5	1.128
293.15 K, x2 = 0.45	1016.1	1.093
293.15 K, x2 = 0.55	1012.8	1.058
293.15 K, x2 = 0.65	1009.1	1.021
293.15 K, x2 = 0.74	1005.3	0.9894
293.15 K, x2 = 0.83	1001.7	0.9628
293.15 K, x2 = 0.92	998.2	0.9384
298.15 K, x2 = 0	1023.4	1.084
298.15 K, x2 = 0.06	1022.3	1.093
298.15 K, x2 = 0.12	1021.2	1.098
298.15 K, x2 = 0.18	1019.5	1.093
298.15 K, x2 = 0.24	1018.1	1.084
298.15 K, x2 = 0.35	1014.5	1.059
298.15 K, x2 = 0.45	1011.2	1.032
298.15 K, x2 = 0.55	1007.8	1.002
298.15 K, x2 = 0.65	1004.1	0.9754
298.15 K, x2 = 0.74	1000.5	0.9543
298.15 K, x2 = 0.83	996.4	0.9353
298.15 K, x2 = 0.92	993	0.9189
303.15 K, x2 = 0	1016.6	1.028
303.15 K, x2 = 0.06	1016.4	1.038
303.15 K, x2 = 0.12	1015.9	1.042
303.15 K, x2 = 0.18	1014.5	1.037
303.15 K, x2 = 0.24	1013.1	1.031
303.15 K, x2 = 0.35	1009.9	1.01
303.15 K, x2 = 0.45	1006.5	0.9913
303.15 K, x2 = 0.55	1003.2	0.9667
303.15 K, x2 = 0.65	999.3	0.9452
303.15 K, x2 = 0.74	995.5	0.9283
303.15 K, x2 = 0.83	991.3	0.9135
303.15 K, x2 = 0.92	987.6	0.9007
308.15 K, x2 = 0	1011	0.9921
308.15 K, x2 = 0.06	1011.01	0.9966
308.15 K, x2 = 0.12	1010.7	0.9977
308.15 K, x2 = 0.18	1010.32	0.9959
308.15 K, x2 = 0.24	1008.6	0.9894
308.15 K, x2 = 0.35	1005.6	0.9741
308.15 K, x2 = 0.45	1002.1	0.9577
308.15 K, x2 = 0.55	998.9	0.938
308.15 K, x2 = 0.65	995	0.9204
308.15 K, x2 = 0.74	990.8	0.9067
308.15 K, x2 = 0.83	986.8	0.8938
308.15 K, x2 = 0.92	982.8	0.8828
313.15 K, x2 = 0	1005	0.9521
313.15 K, x2 = 0.06	1006.5	0.9668
313.15 K, x2 = 0.12	1007	0.9724
313.15 K, x2 = 0.18	1006.3	0.9671
313.15 K, x2 = 0.24	1005.5	0.9597
313.15 K, x2 = 0.35	1002.4	0.9453
313.15 K, x2 = 0.45	998.3	0.9308
313.15 K, x2 = 0.55	994.9	0.916
313.15 K, x2 = 0.65	990.8	0.9008
313.15 K, x2 = 0.74	987	0.8876
313.15 K, x2 = 0.83	983	0.8758
313.15 K, x2 = 0.92	979	0.8652

COCOCOCOCOC [2,4,6,8,10-pentaoxaundecane] + COCOCOCOC
Conditions	mass density [kg/m3]	viscosity [mPa·s]
288.15 K, x2 = 0	1078.8	2.207
288.15 K, x2 = 0.12	1074.7	2.085
288.15 K, x2 = 0.24	1070.3	1.982
288.15 K, x2 = 0.35	1065.8	1.899
288.15 K, x2 = 0.45	1061.1	1.83
288.15 K, x2 = 0.55	1056.3	1.769
288.15 K, x2 = 0.65	1051.8	1.707
288.15 K, x2 = 0.74	1047.6	1.642
288.15 K, x2 = 0.83	1043.9	1.553
288.15 K, x2 = 0.86	1042.2	–
288.15 K, x2 = 0.92	1039.9	1.442
288.15 K, x2 = 0.96	1039.1	–
293.15 K, x2 = 0	1073.3	2.015
293.15 K, x2 = 0.12	1069.2	1.895
293.15 K, x2 = 0.24	1065.1	1.798
293.15 K, x2 = 0.35	1061	1.724
293.15 K, x2 = 0.45	1056.7	1.663
293.15 K, x2 = 0.55	1052.2	1.606
293.15 K, x2 = 0.65	1047.5	1.556
293.15 K, x2 = 0.74	1043.1	1.494
293.15 K, x2 = 0.83	1038.9	1.412
293.15 K, x2 = 0.86	1036.6	–
293.15 K, x2 = 0.92	1034.6	1.311
293.15 K, x2 = 0.96	1032.4	–
298.15 K, x2 = 0	1068.2	1.848
298.15 K, x2 = 0.12	1064.2	1.729
298.15 K, x2 = 0.24	1060	1.639
298.15 K, x2 = 0.35	1055.5	1.574
298.15 K, x2 = 0.45	1051.3	1.523
298.15 K, x2 = 0.55	1047.1	1.472
298.15 K, x2 = 0.65	1043.1	1.429
298.15 K, x2 = 0.74	1038.5	1.374
298.15 K, x2 = 0.83	1034.1	1.3
298.15 K, x2 = 0.86	1031.3	–
298.15 K, x2 = 0.92	1029.3	1.21
298.15 K, x2 = 0.96	1026.3	–
303.15 K, x2 = 0	1063.4	1.703
303.15 K, x2 = 0.12	1059.7	1.582
303.15 K, x2 = 0.24	1055.1	1.496
303.15 K, x2 = 0.35	1050.5	1.437
303.15 K, x2 = 0.45	1046.1	1.394
303.15 K, x2 = 0.55	1041.8	1.354
303.15 K, x2 = 0.65	1038	1.319
303.15 K, x2 = 0.74	1033.9	1.273
303.15 K, x2 = 0.83	1029.5	1.217
303.15 K, x2 = 0.86	1026.8	–
303.15 K, x2 = 0.92	1024.2	1.139
303.15 K, x2 = 0.96	1020.7	–
308.15 K, x2 = 0	1059.1	1.576
308.15 K, x2 = 0.12	1055.5	1.448
308.15 K, x2 = 0.24	1050.8	1.366
308.15 K, x2 = 0.35	1046.2	1.313
308.15 K, x2 = 0.45	1041.8	1.28
308.15 K, x2 = 0.55	1037.5	1.248
308.15 K, x2 = 0.65	1033.7	1.23
308.15 K, x2 = 0.74	1029.8	1.192
308.15 K, x2 = 0.83	1025.5	1.149
308.15 K, x2 = 0.86	1022.6	–
308.15 K, x2 = 0.92	1019.8	1.087
308.15 K, x2 = 0.96	1015.6	–
313.15 K, x2 = 0	1055.2	1.464
313.15 K, x2 = 0.12	1051.7	1.331
313.15 K, x2 = 0.24	1047.2	1.252
313.15 K, x2 = 0.35	1042.8	1.207
313.15 K, x2 = 0.45	1038.2	1.18
313.15 K, x2 = 0.55	1034.2	1.155
313.15 K, x2 = 0.65	1030.3	1.143
313.15 K, x2 = 0.74	1026.4	1.121
313.15 K, x2 = 0.83	1022.1	1.092
313.15 K, x2 = 0.86	1018.9	–
313.15 K, x2 = 0.92	1016.2	1.044
313.15 K, x2 = 0.96	1011.6	–
